This is an account of results in US20050165033A1, “Use of indole-3-acetic acids in the treatment of asthma, copd and other diseases” (priority 2002, published 2005).

The target in the test is T1, CRTh2 receptor (Homo sapiens, UniProt Q9Y5Y4).
T1 construct: expressed in transfected cells
T1 sequence (Q9Y5Y4 1-395): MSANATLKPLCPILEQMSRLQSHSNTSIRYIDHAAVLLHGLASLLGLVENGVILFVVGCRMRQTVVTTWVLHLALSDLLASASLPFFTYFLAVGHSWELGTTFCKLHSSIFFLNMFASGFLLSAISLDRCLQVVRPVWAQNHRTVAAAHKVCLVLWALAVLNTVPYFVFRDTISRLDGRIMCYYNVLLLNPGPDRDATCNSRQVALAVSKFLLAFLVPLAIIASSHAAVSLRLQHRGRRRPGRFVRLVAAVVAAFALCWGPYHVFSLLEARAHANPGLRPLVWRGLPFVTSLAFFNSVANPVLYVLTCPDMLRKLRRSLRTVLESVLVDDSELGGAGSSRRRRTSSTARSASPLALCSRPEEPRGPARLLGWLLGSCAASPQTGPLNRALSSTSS
As to the kind of experiment: Intracellular calcium mobilisation (FLIPr, fluo-3AM), inhibition of the response to PGD2 in HEK-hrCRTh2-Gα16 cells. The conditions noted are these: antagonist affinity vs PGD2, pIC50 Cheng-Prusoff analysis, read-out: pA2 (converted). Format: cell-based. The protocol: Pharmacological Data—Intracellular Calcium Mobilisation
Human Embryonic Kidney Cells co-transfected with both the CRTh2 receptor and […] G-protein (HEK-hrCRTh2-G[…]16) are routinely cultured as monolayers in Dulbecco's Modified Eagles Medium (DMEM; Sigma) supplemented with 10% (v:v) heat inactivated foetal bovine serum (New Zealand sourced; Hyclone), 1% (v:v) non-essential amino acids (Gibco BRL), 1% (v:v) penicillin/streptomycin (Gibco BRL), 2 mM L-glutamine (Gibco BRL) and grown under 1 mg/ml […] Geneticin (Gibco BRL) antibiotic selection. Approximately 24 hours prior to the assay the cells are plated at a seeding density of 100,000 cells/well in 100 µl growth media into black walled 96 well Poly-D-Lysine coated plates (Becton Dickinson), with clear bottoms to allow cell inspection and fluorescence measurements from the bottom of each well. All cultures are maintained under standard tissue culture conditions (37° C. in a humidified atmosphere of 5% CO2).
To enable changes in intracellular calcium levels to be measured in HEK-hrCRTh2-Gα16 cells fluo-3AM is utilised as the fluorescent calcium indicator. A dye loading buffer is prepared which consists of a final concentration of 5 µM Fluo-3AM fluorescent cytoplasmic calcium indicator dye (Tef Labs), 2.2 µl/ml Pluronic F127 (Molecular Probes) to promote dye uptake, and 0.5 mM brilliant black (Sigma) to reduce background fluorescence in Balanced Salt Solution (BSS; 125 mM NaCl, 5.4 mM KCl, 16.2 mM NaHCO3, 0.8 mM MgCl2, 1 mM CaCl2, 20 mM HEPES, 1 mM NaH2PO4, 5.5 mM D-(+)-Glucose, 0.1% BSA and pH 7.4 with NaOH). […]
Test compounds are made up at a stock concentration of 10 mM in DMSO. The compounds to be evaluated are then prepared, by serial dilution in BSS buffer, to the required concentrations for inhibition dose response curves to be constructed. […] This allows the potency agonist (p[A]50) value to be determined for the HEK-hrCRTh2-Gα16 cells on any given day. Once the p[A]50 for PGD2 has been determined a separate assay plate containing 2×p[A]50 of PGD2 is prepared as the 2nd addition plate (or agonist plate). […]

As for `Cc1c(CC(=O)O)c2cc(C(C)C)ccc2n1-c1ncnc2cc(Cl)ccc12` [1-(7-chloro-4-quinazolinyl)-2-methyl-5-(1-methylethyl)-1H-indole-3-acetic acid], the Kb was 0.158 µM.

With `Cc1c(CC(=O)O)c2ccccc2n1-c1ncnc2cc(Cl)ccc12` [1-(7-chloro-4-quinazolinyl)-2-methyl-1H-indole-3-acetic acid], the Kb is 1.58 µM.

Turning to `COc1ccc2c(c1)c(CC(=O)O)c(C)n2-c1ncnc2c(Cl)cc(Cl)cc12` [1-(6,8-dichloro-4-quinazolinyl)-5-methoxy-2-methyl-1H-indole-3-acetic acid], the Kb is 1 µM.
